The values below come from US4798828A, “Heterocyclic-methylene-penems” (Beecham Group p.l.c., priority 1984, dated 1989).

What all share (test): Antibacterial activity of compounds alone (MIC)
Common to all, as to assay type: cell-based
Common to all, as to conditions: compound alone, amoxycillin: typical MIC's from a number of tests, read-out: MIC (minimum inhibitory concentration)

In one experiment the test system is C freundii Mantio. An excerpt:
(§1) The following Table 1 summaries the antibacterial activity of selected compounds according to the invention (which are identified by compound numbers as given in the examples) against selected micro-organisms and, for comparison purposes, also gives the same data for amoxycillin. The data is given in the form of MIC values (minimum inhibitory concentration)in μg/ml.

Another experiment concerns E aerogenes N1.
From the text: as §1

A further experiment deals with E coli JT410.
From the text: as §1

A further experiment deals with P mirabilis C889.
From the text: as §1

Each structure is given as a SMILES string. In brackets after ≈: the same amount, converted by molar mass.

Regarding `O=C(O)C1=CSC2/C(=C\c3ccon3)C(=O)N12` (racemic) [Compound 43, (5RS) Sodium (Z)-6-(Isoxazol-3-ylmethylene)penem-3-carboxylate], the MIC in the experiment with C freundii Mantio is 256 µg/mL; with E aerogenes N1, over 512 µg/mL; in the experiment with E coli JT410 it was over 512 µg/mL; in the experiment on P mirabilis C889, 256 µg/mL.

`Cn1cc(/C=C2/C(=O)N3C(C(=O)O)=CSC23)nn1` (racemic) [88(a), (5RS) Sodium (Z)-6-(1-methyl-1,2,3-triazol-4-yl-methylene)penem-3-carboxylate]: the MIC worked out at 128 µg/mL in the experiment with C freundii Mantio, 128 µg/mL in the experiment on E aerogenes N1, 64 µg/mL with E coli JT410 and 128 µg/mL in the experiment on P mirabilis C889.

For the compound `Cc1nc(/C=C2/C(=O)N3C(C(=O)O)=CSC23)co1` (racemic) [Compound 78, (5RS) Sodium (Z)-6-[(2-methyloxazol-4-yl)methylene]penem-3-carboxylate], the MIC is over 512 µg/mL with C freundii Mantio, over 512 µg/mL with E aerogenes N1, over 512 µg/mL in the experiment on E coli JT410 and 256 µg/mL with P mirabilis C889.

Regarding `Cn1cc(/C=C2/C(=O)N3C(C(=O)O)=CS[C@H]23)nn1` [Compound 158, (5R) Sodium (Z)-6-(1-methyl-1,2,3-triazol-4-ylmethylene) penem-3-carboxylate], the MIC in the experiment with C freundii Mantio is 64 µg/mL; in the experiment on E aerogenes N1, 256 µg/mL; in the experiment with E coli JT410, 32 µg/mL; in the experiment with P mirabilis C889, 64 µg/mL.

Consider `O=C(O)C1=CSC2/C(=C\c3ccns3)C(=O)N12` (racemic) [Compound 11, (5RS) Sodium (Z)-6-(5-Isothiazolylmethylene)penem-3-carboxylate], for which the MIC with C freundii Mantio, in the experiment on E aerogenes N1, in the experiment with E coli JT410 and with P mirabilis C889 was over 100 µg/mL throughout.

Take `CC1(C)S[C@@H]2[C@H](NC(=O)[C@H](N)c3ccc(O)cc3)C(=O)N2[C@H]1C(=O)O` [Amoxycillin, reference compound]: the MIC in the experiment on C freundii Mantio was over 512 µg/mL; in the experiment with E aerogenes N1, 512 µg/mL (≈ 1400 µM); in the experiment on E coli JT410, 256 µg/mL (≈ 701 µM); in the experiment with P mirabilis C889 it was over 512 µg/mL.

On to `Cn1ccc(/C=C2/C(=O)N3C(C(=O)O)=CSC23)n1` (racemic) [Compound 169, (5RS) Sodium (Z)-6-(1-methylpyrazol-3-ylmethylene)penem-3-carboxylate], for which the MIC in the experiment with C freundii Mantio was 256 µg/mL; in the experiment on E aerogenes N1 it was 512 µg/mL; in the experiment on E coli JT410 it was 512 µg/mL; with P mirabilis C889, 256 µg/mL.
